Measured values reported in US9035071B2, “Compounds acting at multiple prostaglandin receptors giving a general anti-inflammatory response” (Allergan, Inc., priority 2011, dated 2015).

Tests used:
Assay type in all cases: cell-based
[1] = target: T1, human recombinant prostanoid EP2 receptor (Homo sapiens, UniProt P43116); assay: FLIPR Ca2+ signaling, PG antagonist activity, EP2; details: antagonism of standard agonist PGE2, HEK-293 EBNA stable cells with chimeric Gqs
T1 construct: expressed in transfected cells; co-transfected with chimeric Gqs-HA
Protocol: (§1) The above compounds were tested for PG antagonist activity as follows using human recombinant prostanoid receptor (DP1, EP1-4, FP, IP and TP) stable cell lines:
(§2) In order to measure the response of Gs and Gi coupled prostanoid receptors as a Ca^2+ signal, chimeric G protein cDNAs were used. Stable cell lines over-expressing human prostanoid DP1, EP1-4, FP, IP, and TP receptors were established as follows:
(§3) Briefly, human prostanoid DP1, EP2, and EP4 receptor cDNAs were co-transfected with chimeric Gqs cDNA containing a haemagglutanin (HA) epitope; human prostanoid EP3 receptors were co-transfected with chimeric Gqi-HA; human EP1, FP, IP, and TP receptor cDNAs were expressed with no exogenous G-proteins. Gqs and Gqi chimeric cDNAs (Molecular Devices, Sunnyvale, Calif., U.S.A.), as well as cDNAs of prostanoid receptors, were cloned into a pCEP4 vector with a hygromycin B selection marker. Transfection into HEK-293 EBNA (Epstein-Barr virus nuclear antigen) cells was achieved by the FuGENE 6 transfection Reagent (Roche Applied Science, Indianapolis, Ind., USA). Stable transfectants were selected according to hygromycin resistance. Because Gqs and Gqi contained an HA epitope, G-protein expression was detected by Western blotting analysis using anti-mouse HA monoclonal antibody and horseradish peroxidase (HRP)-conjugated secondary antibody, while functional expression of prostanoid receptors was detected by FLIPR screening (Matias et al., 2004). These stable cell lines were validated using previously published antagonists at 10 μM against serial dilutions of standard agonists by FLIPR functional assays for Ca^2− Signaling (as described below).
(§4) Ca^2+ signaling studies were performed using a FLIPR TETRA system (Molecular Devices, Sunnyvale, Calif., USA) in the 384-format. This is a high-throughput instrument for cell-based assays to monitor Ca^2+ signaling associated with GPCRs and ion channels. Cells were seeded at a density of 5×10^4 cells/well in BioCoat poly-D-lysine coated, black wall, clear bottom 384-well plates (BD Biosciences, Franklin lakes, N.J., USA) and allowed to attach overnight in an incubator at 37° C. The cells were then washed twice with HBSS-HEPES buffer (Hanks' balanced salt solution without bicarbonate and phenol red, 20 mM HEPES, pH 7.4) using an ELx405 Select CW Microplate Washer (BioTek, Winooski, Vt., USA). After 60 min of dye-loading in the dark using the Ca^2+-sensitive dye Fluo-4AM (Invitrogen, Carlsbad, Calif., USA), at a final concentration of 2×10^−6M, the plates were washed 4 times with HBSS-HEPES buffer to remove excess dye and leaving 50 μl of buffer in each well. The plates were then placed in the FLIPR TETRA instrument and allowed to equilibrate at 37° C. AGN-211377 was added in a 25 μl volume to each well to give final concentrations of 0.1 μM, 0.3 μM, 1 μM, 3 μM, 10 μM, and 30 μM; or 0.067 μM, 0.1 μM, 0.2 μM, 0.3 μM, 0.67 μM, and 1 μM for cells over-expressing TP receptors. After 4.5 minutes, a 7-point serial dilution of the standard agonist for the corresponding receptor, in a 25 μl volume was injected at the final concentrations from 10^−11M to 10^−5M in 10-fold serial dilution increments for cells expressing human recombinant DP1, EP1, EP2, EP3, EP4, FP, and IP receptors. The dose range for the standard agonist for human recombinant TP receptors was from 10^−12M to 10^−6M. HBSS-HEPES buffer was used as the negative control for the standard agonists. Cells were excited with LED (light emitting diode) excitation at 470-495 nm and emission was measured through an emission filter at 515-575 nm. Assay plates were read for 3.5 minutes using the FLIPR^TETRA. The peak increase in fluorescence intensity was recorded for each well. On each plate, negative controls, dose response of positive controls, and co-treatments of antagonist-agonist for each dose were in triplicates. Standard agonists were as follows: DP=BW 245C, EP1-EP4=PGE2, FP=17-phenyl-PGF2α, IP=Cicaprost, and TP=U-46619. […]

[2] = target: T2, human recombinant prostanoid IP receptor (Homo sapiens, UniProt P43119); assay: FLIPR Ca2+ signaling, PG antagonist activity, IP; details: antagonism of standard agonist Cicaprost, HEK-293 EBNA stable cells
T2 construct: expressed in transfected cells
Protocol: as §1, §2, §3, §4

[3] = target: T3, human recombinant prostanoid TP receptor (Homo sapiens, UniProt P21731); assay: FLIPR Ca2+ signaling, PG antagonist activity, TP; details: antagonism of standard agonist U-46619, HEK-293 EBNA stable cells
T3 construct: expressed in transfected cells
T3 sequence (P21731 1-343): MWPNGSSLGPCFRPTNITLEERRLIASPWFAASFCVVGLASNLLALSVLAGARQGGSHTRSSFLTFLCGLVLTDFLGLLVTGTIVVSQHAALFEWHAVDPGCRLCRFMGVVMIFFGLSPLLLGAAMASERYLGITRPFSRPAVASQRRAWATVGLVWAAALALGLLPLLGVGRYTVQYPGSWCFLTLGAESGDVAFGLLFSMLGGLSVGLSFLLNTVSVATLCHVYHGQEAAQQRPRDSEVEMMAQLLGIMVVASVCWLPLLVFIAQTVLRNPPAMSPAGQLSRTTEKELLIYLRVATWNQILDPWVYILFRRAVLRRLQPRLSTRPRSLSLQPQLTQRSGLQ
Protocol: as §1, §2, §3, §4

[4] = target: T4, human recombinant prostanoid EP3 receptor (Homo sapiens, UniProt P43115); assay: FLIPR Ca2+ signaling, PG antagonist activity, EP3; details: antagonism of standard agonist PGE2, HEK-293 EBNA stable cells with chimeric Gqi
T4 construct: expressed in transfected cells; co-transfected with chimeric Gqi-HA
T4 sequence (P43115 1-390): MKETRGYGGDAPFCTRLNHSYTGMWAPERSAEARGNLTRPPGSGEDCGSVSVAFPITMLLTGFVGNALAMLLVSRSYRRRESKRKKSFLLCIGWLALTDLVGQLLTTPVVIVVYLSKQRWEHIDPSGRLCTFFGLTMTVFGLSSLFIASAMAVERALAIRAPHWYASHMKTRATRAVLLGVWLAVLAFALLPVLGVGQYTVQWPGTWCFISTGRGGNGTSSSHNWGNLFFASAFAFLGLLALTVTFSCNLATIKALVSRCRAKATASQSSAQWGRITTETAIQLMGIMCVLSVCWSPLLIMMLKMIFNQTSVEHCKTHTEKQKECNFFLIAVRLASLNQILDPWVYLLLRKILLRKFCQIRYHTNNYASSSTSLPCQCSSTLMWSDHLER
Protocol: as §1, §2, §3, §4

T2 sequence (P43119 whole entry): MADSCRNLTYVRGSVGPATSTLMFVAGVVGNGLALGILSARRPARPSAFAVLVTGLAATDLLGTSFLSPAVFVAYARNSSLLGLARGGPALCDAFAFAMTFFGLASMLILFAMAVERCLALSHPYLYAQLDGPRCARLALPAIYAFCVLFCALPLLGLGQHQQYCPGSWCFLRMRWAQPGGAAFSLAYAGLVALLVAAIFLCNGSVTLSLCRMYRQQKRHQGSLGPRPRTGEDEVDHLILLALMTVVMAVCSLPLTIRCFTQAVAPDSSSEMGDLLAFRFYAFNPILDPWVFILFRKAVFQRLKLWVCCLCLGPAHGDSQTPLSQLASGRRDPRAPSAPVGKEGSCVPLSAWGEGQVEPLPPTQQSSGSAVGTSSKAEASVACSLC
T1 sequence (P43116 whole entry): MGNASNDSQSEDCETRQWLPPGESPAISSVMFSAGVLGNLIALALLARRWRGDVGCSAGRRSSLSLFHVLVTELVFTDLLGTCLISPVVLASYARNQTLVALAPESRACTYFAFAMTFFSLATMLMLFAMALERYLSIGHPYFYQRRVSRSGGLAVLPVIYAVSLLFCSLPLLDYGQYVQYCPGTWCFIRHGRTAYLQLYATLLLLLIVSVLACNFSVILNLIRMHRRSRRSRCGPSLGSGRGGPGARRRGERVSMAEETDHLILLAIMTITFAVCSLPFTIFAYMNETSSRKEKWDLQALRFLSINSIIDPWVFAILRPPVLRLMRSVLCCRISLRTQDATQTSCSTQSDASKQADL

CCC(CC)COc1ccc(Br)cc1Cn1cc(C(=O)O)c(C)n1 [Example 3]
Kb [1]: ≥ 10 µM
Kb [2]: 1.4 µM
Kb [3]: 0.03 µM
Kb [4]: ≥ 10 µM

CCC(CC)COc1ccc(Cl)cc1Cn1ncc(C(=O)O)c1C [Example 10, 1-[5-chloro-2-(2-ethyl-butoxy)-benzyl]-5-methyl-1H-pyrazole-4-carboxylic acid]
Kb [1]: ≥ 10 µM
Kb [2]: 1.3 µM
Kb [3]: 0.006 µM
Kb [4]: 3.9 µM

CCC(CC)COc1ccc(Br)cc1Cn1ncc(C(=O)O)c1C [Example 2, 1-[5-bromo-2-(2-ethyl-butoxy)-benzyl]-5-methyl-1H-pyrazole-4-carboxylic acid]
Kb [1]: ≥ 10 µM
Kb [2]: 2.4 µM
Kb [3]: 0.012 µM
Kb [4]: 6.1 µM

CCC(CC)COc1ccc(C(F)(F)F)cc1Cn1ncc(C(=O)O)c1C [Example 8, 1-[2-(2-ethyl-butoxy)-5-trifluoromethyl-benzyl]-5-methyl-1H-pyrazole-4-carboxylic acid]
Kb [1]: ≥ 10 µM
Kb [2]: ≥ 10 µM
Kb [3]: 0.045 µM
Kb [4]: ≥ 10 µM

CCC(CC)COc1ccc(Cl)cc1Cn1nc(C)c(C(=O)O)c1C [Example 5, 1-[5-chloro-2-(2-ethyl-butoxy)-benzyl]-3,5-dimethyl-1H-pyrazole-4-carboxylic acid]
Kb [1]: ≥ 10 µM
Kb [2]: 0.6 µM
Kb [3]: 0.018 µM
Kb [4]: ≥ 10 µM

Cc1c(C(=O)O)cnn1Cc1cc(Cl)ccc1OCC1CCCC1 [Example 12, 1-(5-chloro-2-cyclopentylmethoxy-benzyl)-5-methyl-1H-pyrazole-4-carboxylic acid]
Kb [1]: ≥ 10 µM
Kb [2]: 2.65 µM
Kb [3]: 0.04 µM
Kb [4]: ≥ 10 µM

CCC(CC)COc1ccc(Cl)cc1Cn1cc(C(=O)O)cn1 [Example 4, 1-[5-chloro-2-(2-ethyl-butoxy)-benzyl]-1H-pyrazole-4-carboxylic acid]
Kb [1]: ≥ 10 µM
Kb [2]: 3.1 µM
Kb [3]: 0.1 µM
Kb [4]: ≥ 10 µM

CCC(CC)COc1ccc(Br)cc1Cn1ncc(C(=O)O)c1N [Example 16, 5-amino-1-[5-bromo-2-(2-ethyl-butoxy)-benzyl]-1H-pyrazole-4-carboxylic acid]
Kb [1]: ≥ 10 µM
Kb [2]: 5.1 µM
Kb [3]: 0.05 µM
Kb [4]: ≥ 10 µM

Cc1c(C(=O)O)cnn1Cc1cc(Br)ccc1OCC(C)(C)C [Example 14, 1-[5-bromo-2-(2,2-dimethyl-propoxy)-benzyl]-5-methyl-1H-pyrazole-4-carboxylic acid]
Kb [1]: ≥ 10 µM
Kb [2]: ≥ 10 µM
Kb [3]: 0.02 µM
Kb [4]: ≥ 10 µM

CCC(CC)COc1ccc(C(F)(F)F)cc1Cn1cc(C(=O)O)c(C)n1 [Example 9, 1-[2-(2-ethyl-butoxy)-5-trifluoromethyl-benzyl]-3-methyl-1H-pyrazole-4-carboxylic acid]
Kb [1]: ≥ 10 µM
Kb [2]: ≥ 10 µM
Kb [3]: 0.44 µM
Kb [4]: ≥ 10 µM

CCCc1nn(Cc2cc(Cl)ccc2OCC(CC)CC)cc1C(=O)O [Example 6, 1-[5-chloro-2-(2-ethyl-butoxy)-benzyl]-3-propyl-1H-pyrazole-4-carboxylic acid]
Kb [1]: 8.6 µM
Kb [2]: ≥ 10 µM
Kb [3]: 0.5 µM
Kb [4]: ≥ 10 µM

Cc1c(C(=O)O)cnn1Cc1cc(Cl)ccc1OCC(C)C [Example 11, 1-(5-chloro-2-isobutoxy-benzyl)-5-methyl-1-pyrazole-4-carboxylic acid]
Kb [1]: ≥ 10 µM
Kb [2]: 8.3 µM
Kb [3]: 0.08 µM
Kb [4]: ≥ 10 µM

CCC(CC)COc1ccc(Br)cc1Cn1ncc(CC(=O)O)c1C [Example 1, {1-[5-bromo-2-(2-ethyl-butoxy)-benzyl]-5-methyl-1H-pyrazol-4-yl}-acetic acid]
Kb [1]: ≥ 10 µM
Kb [2]: 4.8 µM
Kb [3]: 0.003 µM
Kb [4]: ≥ 10 µM

CCC(CC)COc1ccc(OC(F)(F)F)cc1Cn1ncc(C(=O)O)c1C [Example 15, 1-[2-(2-ethyl-butoxy)-5-trifluoromethoxy-benzyl]-5-methyl-1H-pyrazole-4-carboxylic acid]
Kb [1]: ≥ 10 µM
Kb [2]: ≥ 10 µM
Kb [3]: 0.008 µM
Kb [4]: ≥ 10 µM

CCCc1c(C(=O)O)cnn1Cc1cc(Cl)ccc1OCC(CC)CC [Example 7, 1-[5-chloro-2-(2-ethyl-butoxy)-benzyl]-5-propyl-1H-pyrazole-4-carboxylic acid]
Kb [1]: ≥ 10 µM
Kb [2]: 1.8 µM
Kb [3]: 0.15 µM
Kb [4]: ≥ 10 µM

Cc1c(C(=O)O)cnn1Cc1cc(Br)ccc1OCC(C)C [Example 13, 1-(5-bromo-2-isobutoxy-benzyl)-5-methyl-1H-pyrazole-4-carboxylic acid]
Kb [1]: ≥ 10 µM
Kb [2]: 7.7 µM
Kb [3]: 0.02 µM
Kb [4]: ≥ 10 µM
